In brackets after ≈: the same amount, converted by molar mass. Activity calls are given as the source filed them. No cut-off for these calls is given here.
What was measured:
PC-3M [1] = experiment: Cytotoxicity against human PC-3M cells assessed as inhibition of cell proliferation measured after 72 hrs by resazurin dye based AlamarBlue assay; type: functional
NCI-H460 [2] = experiment: Cytotoxicity against human NCI-H460 cells assessed as inhibition of cell proliferation measured after 72 hrs by resazurin dye based AlamarBlue assay; type: functional; settings: NCI-H460, 72 h
MDA-MB-231 [3] = experiment: Cytotoxicity against human MDA-MB-231 cells assessed as inhibition of cell proliferation measured after 72 hrs by resazurin dye based AlamarBlue assay; type: functional; settings: MDA-MB-231, 72 h
PC-3M [4] = experiment: Cytotoxicity against human PC-3M cells assessed as inhibition of cell proliferation up to 10 uM measured after 72 hrs by resazurin dye based AlamarBlue assay; type: functional
NCI-H460 [5] = experiment: Cytotoxicity against human NCI-H460 cells assessed as inhibition of cell proliferation up to 10 uM measured after 72 hrs by resazurin dye based AlamarBlue assay; type: functional
SF-268 [6] = experiment: Cytotoxicity against human SF-268 cells assessed as inhibition of cell proliferation up to 10 uM measured after 72 hrs by resazurin dye based AlamarBlue assay; type: functional
MCF7 [7] = experiment: Cytotoxicity against human MCF7 cells assessed as inhibition of cell proliferation up to 10 uM measured after 72 hrs by resazurin dye based AlamarBlue assay; type: functional
MDA-MB-231 [8] = experiment: Cytotoxicity against human MDA-MB-231 cells assessed as inhibition of cell proliferation up to 10 uM measured after 72 hrs by resazurin dye based AlamarBlue assay; type: functional
WI-38 [9] = experiment: Cytotoxicity against human WI-38 cells assessed as inhibition of cell proliferation up to 10 uM measured after 72 hrs by resazurin dye based AlamarBlue assay; settings: wi-38, 72 h
Candida albicans [10] = experiment: Antifungal activity against Candida albicans ATCC 10261 assessed as inhibition of fungal growth at 100 ug/ml incubated for 24 hrs by CLSI method relative to control; type: functional
Candida albicans [11] = experiment: Antifungal activity against Candida albicans ATCC 10261 assessed as inhibition of fungal growth at 50 ug/ml incubated for 24 hrs by CLSI method relative to control; type: functional
SF-268 [12] = experiment: Cytotoxicity against human SF-268 cells assessed as inhibition of cell proliferation measured after 72 hrs by resazurin dye based AlamarBlue assay; type: functional; settings: SF-268, 72 h
MCF7 [13] = experiment: Cytotoxicity against human MCF7 cells assessed as inhibition of cell proliferation measured after 72 hrs by resazurin dye based AlamarBlue assay; type: functional; settings: MCF7, 72 h
WI-38 [14] = experiment: Cytotoxicity against human WI-38 cells assessed as inhibition of cell proliferation measured after 72 hrs by resazurin dye based AlamarBlue assay; settings: WI-38, 72 h
Escherichia coli [15] = experiment: Antibacterial activity against Escherichia coli ATCC 25922 assessed as inhibition of bacterial growth incubated for 24 hrs by CLSI method; type: functional
Pseudomonas aeruginosa [16] = experiment: Antibacterial activity against Pseudomonas aeruginosa ATCC 10197 assessed as inhibition of bacterial growth incubated for 24 hrs by CLSI method; type: functional
Staphylococcus aureus = experiment: Antibacterial activity against Staphylococcus aureus ATCC 25923 assessed as inhibition of bacterial growth incubated for 24 hrs by CLSI method; type: functional
Candida albicans [17] = experiment: Antifungal activity against Candida albicans ATCC 10261 assessed as inhibition of fungus growth incubated for 24 hrs by CLSI method; type: functional
Pseudomonas aeruginosa [18] = experiment: Antibacterial activity against Pseudomonas aeruginosa ATCC 10197 assessed as inhibition of bacterial growth at 25 ug/ml incubated for 24 hrs by CLSI method relative to control; type: functional
Escherichia coli [19] = experiment: Antibacterial activity against Escherichia coli ATCC 25922 assessed as inhibition of bacterial growth at 12.5 ug/ml incubated for 24 hrs by CLSI method relative to control; type: functional
Candida albicans [20] = experiment: Antifungal activity against Candida albicans ATCC 10261 assessed as inhibition of fungal growth at 12.5 ug/ml incubated for 24 hrs by CLSI method relative to control; type: functional
Candida albicans [21] = experiment: Antifungal activity against Candida albicans ATCC 10261 assessed as inhibition of fungal growth at 6.25 ug/ml incubated for 24 hrs by CLSI method relative to control; type: functional

| SMILES | IC50 (PC-3M [1]) [µM] | IC50 (MDA-MB-231 [3]) [µM] | Activity (PC-3M [4]) | Activity (NCI-H460 [5]) | Activity (SF-268 [6]) | Activity (MCF7 [7]) | Activity (MDA-MB-231 [8]) | Activity (WI-38 [9]) | IC50 (SF-268 [12]) [µM] | IC50 (MCF7 [13]) [µM] | also measured |
| --- | --- | --- | --- | --- | --- | --- | --- | --- | --- | --- | --- |
| COc1cccc2c1C(=O)c1c(O)c3c(c(O)c1C2=O)C[C@@](O)(C(=O)CO)C[C@@H]3O[C@H]1C[C@H](N)[C@H](O)[C@H](C)O1 [DOXORUBICIN] | 0.3 | 0.7 | – | – | – | – | – | – | – | – | IC50 (NCI-H460 [2]): 0.1 µM |
| COC1=CC(=O)[C@H]2O[C@H]2[C@H]1O | – | – | inactive | inactive | inactive | inactive | inactive | Non-Toxic | – | – | inhibition at 100 µg/mL (Candida albicans [10]): 75%; inhibition at 50 µg/mL (Candida albicans [11]): 50% |
| CCCCCCC(=O)C(O)C(O)/C=C/C=C/C=C\C(=O)O (configuration not stated) | – | – | inactive | inactive | inactive | inactive | inactive | Non-Toxic | – | – | – |
| COC1=CC(=O)[C@@]2([C@H](O)C=C(C)C)O[C@H]2C1=O | 4.6 | 2.6 | – | – | – | – | – | – | 1.3 | 1.6 | IC50 (NCI-H460 [2]): 4.8 µM; IC50 (WI-38 [14]): 8.3 µM |
| COC1=CC(=O)[C@H]2O[C@H]2C1=O | 2.5 | 2.2 | – | – | – | – | – | – | 1.2 | 1.4 | IC50 (NCI-H460 [2]): 2.5 µM; IC50 (WI-38 [14]): 7.8 µM; MBC (Escherichia coli [15]): 25 µg/mL (≈ 162 µM); MIC (Escherichia coli [15]): 25 µg/mL (≈ 162 µM); MIC (Pseudomonas aeruginosa [16]): 25 µg/mL (≈ 162 µM); MIC (Staphylococcus aureus): 25 µg/mL (≈ 162 µM); MFC (Candida albicans [17]): 25 µg/mL (≈ 162 µM); MIC (Candida albicans [17]): 25 µg/mL (≈ 162 µM); inhibition at 25 µg/mL (Pseudomonas aeruginosa [18]): 50%; inhibition at 12.5 µg/mL (Escherichia coli [19]): 75%; inhibition at 12.5 µg/mL (Candida albicans [20]): 75%; inhibition at 6.25 µg/mL (Candida albicans [21]): 50% |
| COC1=CC(=O)[C@@]2([C@@H](O)C=C(C)C)O[C@H]2[C@H]1O | – | – | inactive | inactive | inactive | inactive | inactive | Non-Toxic | – | – | – |
| COC1=CC(=O)C(O)(C(O)CC(C)(C)O)C[C@H]1O (some centres not stated) | – | – | inactive | inactive | inactive | inactive | inactive | Non-Toxic | – | – | – |
| COC1=CC(=O)[C@@]2([C@H](C=C(C)C)OC(C)=O)O[C@]3(OC)CC(=O)[C@H]4O[C@H]4[C@]3(O)[C@H]2C1=O | 6 | 6 | – | inactive | – | – | – | Non-Toxic | 2.7 | 2.9 | – |
| COC1=CC(=O)[C@@](O)([C@@H](C=C(C)C)OC(C)=O)CC1=O | – | – | inactive | inactive | inactive | inactive | inactive | Non-Toxic | – | – | – |
| COC1=C[C@@H](O)[C@H]2O[C@H]2C1=O | – | – | – | – | – | – | – | – | 1.7 | 1.6 | IC50 (WI-38 [14]): 3.8 µM |
| COC1=CC(=O)[C@](O)([C@H](C=C(C)C)OC(C)=O)C[C@H]1O | – | – | inactive | inactive | inactive | inactive | inactive | Non-Toxic | – | – | – |
